Test results: patent US10676509B2, “Surface-immobilized antimicrobial peptoids” (Northwestern University, priority 2008, dated 2020)
Non-standard residues stand in square brackets, D forms with d. Residues, ends and D or L forms follow the SMILES beside them. Dopa = N[C@@H](Cc1ccc(O)c(O)c1)C(=O)O; Nme = COCCNCC(=O)O

Assays:
[1] = target: T1, fibrinogen from human plasma (Homo sapiens, UniProt P02671+P02675+P02679); assay: Short-term fibrinogen adsorption on modified TiO2 sensors using OWLS; conditions: Table 7, fibrinogen 3 mg/ml, 20 min, 37° C., mean ± SD
T1 construct: fibrinogen from human plasma was dissolved at 3 mg/ml concentrations in buffer B; purchased Aldrich (Milwaukee, Wis.); host or cells: human plasma
T1 sequence (P02671 20-644 isoform P02671-2 limits assumed): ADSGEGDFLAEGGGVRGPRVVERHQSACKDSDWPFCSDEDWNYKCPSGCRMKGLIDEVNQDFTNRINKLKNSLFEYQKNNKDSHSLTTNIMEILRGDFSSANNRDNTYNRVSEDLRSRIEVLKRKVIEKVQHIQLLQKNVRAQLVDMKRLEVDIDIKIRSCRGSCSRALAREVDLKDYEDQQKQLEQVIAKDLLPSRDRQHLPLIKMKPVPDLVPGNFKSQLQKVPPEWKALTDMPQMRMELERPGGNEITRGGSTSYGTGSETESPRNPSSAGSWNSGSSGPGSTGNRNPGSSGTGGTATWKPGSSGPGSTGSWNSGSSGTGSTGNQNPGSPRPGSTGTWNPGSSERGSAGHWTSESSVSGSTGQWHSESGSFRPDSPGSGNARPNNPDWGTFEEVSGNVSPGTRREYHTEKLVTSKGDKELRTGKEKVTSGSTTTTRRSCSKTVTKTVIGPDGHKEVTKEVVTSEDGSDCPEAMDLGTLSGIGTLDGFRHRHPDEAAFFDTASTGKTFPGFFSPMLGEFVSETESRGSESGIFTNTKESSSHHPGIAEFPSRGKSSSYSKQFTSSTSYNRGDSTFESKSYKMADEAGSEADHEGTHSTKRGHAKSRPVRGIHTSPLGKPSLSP
T1 sequence (P02675 31-491): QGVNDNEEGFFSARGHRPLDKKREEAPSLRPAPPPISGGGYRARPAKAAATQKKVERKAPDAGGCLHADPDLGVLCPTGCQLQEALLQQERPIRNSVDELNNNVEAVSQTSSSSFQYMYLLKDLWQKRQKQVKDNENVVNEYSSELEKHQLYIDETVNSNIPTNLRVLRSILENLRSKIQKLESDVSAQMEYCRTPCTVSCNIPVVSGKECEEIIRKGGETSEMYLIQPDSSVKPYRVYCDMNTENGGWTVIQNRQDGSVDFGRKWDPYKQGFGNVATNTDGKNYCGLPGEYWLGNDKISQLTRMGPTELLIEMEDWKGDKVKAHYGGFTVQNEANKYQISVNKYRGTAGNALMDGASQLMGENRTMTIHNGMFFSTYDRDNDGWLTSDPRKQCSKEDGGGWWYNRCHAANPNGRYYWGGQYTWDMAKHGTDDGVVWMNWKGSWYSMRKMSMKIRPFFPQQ
T1 sequence (P02679 27-437 isoform P02679-2 limits assumed): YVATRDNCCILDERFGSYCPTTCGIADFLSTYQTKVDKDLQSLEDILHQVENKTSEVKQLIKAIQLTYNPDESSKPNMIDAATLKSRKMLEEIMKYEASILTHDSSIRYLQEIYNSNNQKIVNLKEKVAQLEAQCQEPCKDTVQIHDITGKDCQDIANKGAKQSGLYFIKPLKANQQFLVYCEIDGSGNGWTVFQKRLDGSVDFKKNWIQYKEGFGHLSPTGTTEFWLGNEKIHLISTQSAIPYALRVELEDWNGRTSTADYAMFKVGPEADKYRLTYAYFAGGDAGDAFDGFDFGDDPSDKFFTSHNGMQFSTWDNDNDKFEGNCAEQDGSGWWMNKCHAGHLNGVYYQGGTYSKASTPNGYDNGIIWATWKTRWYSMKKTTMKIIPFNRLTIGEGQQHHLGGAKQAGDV
Experimental: Lyophilized human serum was reconstituted in water to reach the typical concentration in blood; fibrinogen from human plasma was dissolved at 3 mg/ml concentrations in buffer B (10 mM HEPES, 150 mM NaCl, pH=7.4). For in situ protein-adsorption experiments, TiO2 coated waveguide sensors were modified with peptidomimetic polymers as explained previously. After equilibration of the OWLS baseline in buffer B, protein solution was injected and allowed to adsorb for 20 min at 37° C. before rinsing with buffer B. A refractive index value of 1.331 27 was used for buffer B, and a standard value of 0.182 cm^3/g was used for dn/dc in the protein-adsorption calculations.

[2] = tested on: B. subtilis; type: cell-based, Bacillus subtilis (ATCC 6633); conditions: 16 h
Experimental: (§1) The polymers were initially tested to determine their antibacterial properties in the solution state. Antibacterial activities of the compounds were tested using the methods described above for both Gram-negative and Gram-positive bacterial strains.
(§2) The minimum inhibitory concentration (MIC) for each polymer was determined according to Clinical Laboratory Standards Institute (CLSI) broth microdilution protocols (M7-A6). The procedure explained previously was followed (Chongsiriwatana et al., supra); briefly, serial dilutions of the polymers were prepared in Mueller-Hinton broth (MHB) in 96-well microtiter plates and bacterial inoculum in MHB was added to each well (˜5.0×10^4 CFU/well). Optical density was monitored at 590 nm for 16 h at 35° C.

[3] = tested on: S. epidermidis; type: cell-based, Staphylococcus epidermidis RP62A (ATCC 12228); conditions: 16 h
Experimental: as §1, §2

[4] = tested on: P. aeruginosa; type: cell-based, Pseudomonas aeruginosa (ATCC 700829); conditions: 16 h
Experimental: as §1, §2

[5] = tested on: E. coli; type: cell-based, Escherichia coli (ATCC 35218); conditions: 16 h
Experimental: as §1, §2

COCCN(CC(=O)N(CCOC)CC(=O)N(CCOC)CC(=O)N(CCOC)CC(=O)N(CCOC)CC(=O)N(CCOC)CC(=O)N(CCOC)CC(=O)N(CCOC)CC(=O)N(CCOC)CC(=O)N(CCOC)CC(=O)N(CCOC)CC(=O)N(CCOC)CC(=O)N(CCOC)CC(=O)N(CCOC)CC(=O)N(CCOC)CC(=O)N(CCOC)CC(=O)N(CCOC)CC(=O)N(CCOC)CC(=O)N(CCOC)CC(=O)N(CCOC)CC(=O)N[C@@H](Cc1ccc(O)c(O)c1)C(=O)N[C@@H](CCCCN)C(=O)N[C@@H](Cc1ccc(O)c(O)c1)C(=O)N[C@@H](CCCCN)C(=O)N[C@@H](Cc1ccc(O)c(O)c1)C(N)=O)C(C)=O [PMP1, (Nme)20-(DOPA-Lys)2-DOPA] (Ac-[Nme][Nme][Nme][Nme][Nme][Nme][Nme][Nme][Nme][Nme][Nme][Nme][Nme][Nme][Nme][Nme][Nme][Nme][Nme][Nme][Dopa]K[Dopa]K[Dopa]-NH2; N-terminus and C-terminus assumed)
Adsorbed mass Fibrinogen [1]: 7 ± 3 ng/cm^2 | MIC B. subtilis [2]: >100 µM | MIC S. epidermidis [3]: >100 µM | MIC P. aeruginosa [4]: >100 µM | MIC E. coli [5]: >100 µM
